Laboratory results: US20110028401A1, “CRIPTO BLOCKING MOLECULES AND THERAPEUTIC USES THEREOF” (CONSIGLIO NAZIONALE DELLE RICERCHE, priority 2009, published 2011)

Key:
[1] = test system: wild-type EBs; assay: Neuronal differentiation of wild-type EBs, βIII-tubulin immunofluorescence grades; assay type: cell-based, mouse; conditions: 25 μM peptide, 13 day-old EBs, mean±SD
Description: Undifferentiated ESCs were cultured as previously described^55.
Immunofluorescence analysis on adherent EBs, dopaminergic differentiated ESC and striatal grafts were performed as previously described^29, 35. The following primary antibodies were used: mouse anti-βIII-tubulin (Tuj1, 1:1000, Promega); anti-βIII tubulin (Sigma; 1:400), rabbit anti-tyrosine hydroxylase (TH, 1:200, PelFreez); mouse anti-TH (1:500, Chemicon); Nurr-1 (1:250, Santa Cruz); rabbit anti-Pitx3 (1:200, InVitrogen), rabbit anti-GIRK-2 (1:100, Chemicon); rat anti-DAT (1:1000, Chemicon); rabbit anti-5HT (1:200, Biogenesis); rabbit anti-NET (1:20, Chemicon), rabbit anti-GABA (1:500, Sigma); rabbit anti-Ki67 (1:1000, Neomarkers); and rat anti-Nestin (1:100, Developmental Studies Hybridoma Bank). Appropriate fluorophore conjugated secondary antibodies were used for visualization: (Cyanin-2, Cy3 and Cy5, 1:500, Jackson ImmunoResearch or Alexa-488, Alexa-594 and Alexa-633, 1:200, Molecular Probes).
Thus, if specific and effective, Cripto BP should be able to re-direct ESC fate and promote neural induction and neurogenesis. To address this issue, 2 day-old wild-type EBs were treated as described above, with either control (CP), dimeric (DP) or blocking (BP) peptides and both morphological and immunofluorescence analysis were performed on 13 day-old EBs. […]

[2] = test system: wild-type EBs; assay: QRT-PCR of cardiac and neuronal markers in EBs; assay type: cell-based, mouse; conditions: 25 μM peptide, 13 day-old EBs
Description: Total RNAs from 13 day-old EBs was extracted with TRIzol kit (Life Technologies Inc.) according to manufacturer's instructions. One microgram of total RNA was used for cDNA synthesis with SuperScript II reverse transcriptase (Life Technologies Inc.) and random hexamers. Quantitative Real time PCR was performed using SYBR Green PCR master mix (EuroClone), according to manufacturer's instructions. The primers used are described in Table S2.

[3] = test system: Parkinsonian rats; assay: Tumor formation after ESC transplantation into striatum of 6-OHDA lesioned rats; assay type: in vivo, rat
Text: Thirty-seven adult male Sprague Dawley rats (250-350 g; from ARC, Australia) were housed and treated according to the guidelines of the Australian and Howard Florey Institute animal ethics committee (07-030). Animals received unilateral stereotaxic injections of 6-OHDA into the substantia nigra pars compacta (SNpc) to create a complete lesion of the midbrain DA neurons, as previously described^29. Lesioned animals were selected for transplantation based on their response to amphetamine induced rotational behaviour as previously described^29. Animals making greater than 6 rotations/min (lesion greater than 80%) were selected for grafting.
Two days prior to grafting animals began cyclosporine-A immune suppression (10 mg/kg). Fourteen days post-lesioning selected animals (determined by behavioural rotations) were again anesthetized and stereotaxically injected with 1 μl of cell suspension at each of the 4 sites as previously described^29. Stereotaxic coordinates of 1st & 2nd Injection (from bregma): anterior 0.2 mm, lateral 3.0 mm, ventral 4.5 and 5.0 mm; 3rd & 4th Injection, anterior 1.0 mm, lateral 2.5 mm, ventral 4.5 and 5.0 mm; incisor bar 0 mm^57). ESCs were differentiated as outlined in FIG. 7a. In brief, ESC colonies were dissected away from the stromal feeder layer and dissociated using collagenase/dispase with agitation (700 μg/ml, Roche, for 20 min, 80 rpm). Cells were subsequently resuspended at a density of 3,000 cells/μl ready for grafting. Five rats received Sham injections (4 μl N2 media, 1 μl/site), 16 rats received a total of 12,000 ESCs (4×1 μl grafts) pre-treated with the Control peptide (of which 9 of these animals also received infusion of the Control peptide) and a further 16 rats received grafts pretreated with the Cripto blocking peptide (9 animals receiving infusion of the Cripto BP).
The peptide infusion was performed by implantation of a cannula into the striatum (Alzet brain infusion kit) connected to a subcutaneously placed osmotic minipump (Alzet) prefilled with either CP or Cripto BP. Implantation was performed at the same time as the cell grafting. Cannula coordinates: anterior 0.5 mm, lateral 1.5 mm, ventral 5.0 mm; incisor bar 0 mm^57. The osmotic pump was capable of continuously delivering the peptide over a 3 weeks period (75 μM, 0.25 μl/hr) upon which time the animals were briefly anaesthetized with isoflurane and the pump removed through a small incision over the scapular region.
Eight weeks post grafting, rats were killed by an overdose of sodium pentobarbital (100 mg kg^−1 i.p.) and intracardially perfused as previously described^29. Brains were removed, post fixed for 1 hour, and then left overnight at 4° C. in 20% sucrose in PBS. The following day, 20 μm-thick coronal sections were cut serially through the striatum (12 series) and 50 μm through the SNpc and mounted directly onto chrome alum [K2Cr(SO4)2.12H2O] gelatinized slides.
One series of slides containing grafted striata was counterstained using 1% Neutral red to visualise the graft/tumor size and the gross morphology of the striatum.
Labeling was visualized by light or fluorescent illumination using an inverted microscope (DMIRB, Leica Microsystems, Wetzelar, Del., http://www.leica-microsystems.com) or upright microscope (Leica DMLB2). Images were acquired on a DC 350 FX camera (Leica). Area of grafts and tumors was calculated using Stereo Investigator software (MicroBrightField, Vt., USA).

C[S+]([O-])CCC(N)C(=O)N[C@@H](CSCc1ccccc1)C(=O)N[C@@H](CSCc1ccccc1)C(=O)N[C@@H](CCCCNC(=O)[C@H](CSCc1ccccc1)NC(=O)[C@H](CSCc1ccccc1)NC(=O)[C@@H](N)CC[S+](C)[O-])C(=O)N[C@@H](CCCCNC(=O)[C@H](CCCCNC(=O)[C@H](CSCc1ccccc1)NC(=O)[C@H](CSCc1ccccc1)NC(=O)[C@@H](N)CC[S+](C)[O-])NC(=O)[C@H](CSCc1ccccc1)NC(=O)[C@H](CSCc1ccccc1)NC(=O)[C@@H](N)CC[S+](C)[O-])C(=O)NCC(=O)O (some centres unmarked) [Cripto BP]
EBs with Grade 0 phenotype (absence of neurons) [1]: 17.4%±1.15 | EBs with Grade 3 phenotype (full neuronal differentiation) [1]: 45.6%±5.2 | expression of cardiac specific marker MLc2v [2]: reduced | expression of midbrain dopaminergic neuron markers (Pitx3, Wnt5a, Shh, TH, DAT) [2]: showed expression of markers characteristic of developing midbrain dopaminergic neurons | expression of pan neuronal marker NFM [2]: induced | tumor volume ([3]; ESCs pre-treated with peptide + peptide infusion): 0.79 um^3×10^10 | tumor formation (rats with tumors) ([3]; ESCs pre-treated with peptide, no infusion, 8 weeks): 42% | tumor volume ([3]; ESCs pre-treated with peptide, no infusion, Mean±SEM): 1.09 um^3×10^10 | further reduction of tumor incidence by continual infusion into the striatum ([3]; pre-treated ESCs + peptide infusion (75 μM, 0.25 μl/hr, 3 weeks)): 9% | animals with grafts without proliferating or undifferentiated cells ([3]; range over pre-treatment without and with infusion): 58-67% | reduction of tumor formation compared to control peptide ([3]; rat, in vivo): more than 50%
